According to patent US11787839B2, “Targeting α2δ-1-bound glutamate receptors for treating diseases and disorders” (Board of Regents, The University of Texas System, priority 2017, dated 2023):

Experiments:
[1] = tested on: GluN1/GluN2A or GluN1/GluN2B NMDARs with or without α2δ-1 in HEK293 cells; experiment: Whole-cell recording of NMDAR currents in HEK293 cells; format: cell-based, rat; parameters: α2δ-1 co-expression-induced increase in the NMDAR current density / NMDAR currents in cells expressing GluN1/GluN2A or GluN1/GluN2B alone: dose or concentration left out as unconfirmed
From the text: Cell culture and transfection: HEK293 cells (American Type Culture Collection, Manassas, Va.) were maintained in Dulbecco's modified Eagle medium (DMEM) (#10-017-CV, Corning, Manassas, Va.) supplemented with 10% fetal bovine serum (#F4135, Sigma-Aldrich) and penicillin/streptomycin (#30-002-CI, Corning). Cells were passaged after they reached a confluence of 80-90%, approximately every 2 days. HEK293 cells were transfected using PolyJet reagents (#SL100688, SignaGen Laboratories, Gaithersburg, Md.) at a GluN1/GluN2/α2δ-1 ratio of 1:3:1 (the DNA:PolyJet ratio was 1:3).
Whole-cell recording of NMDAR currents in HEK293 cells: Whole-cell recording was performed using a fire-polished pipette (3-5 MΩ) pulled from borosilicate glass and filled with an intracellular solution containing (in mM) 135 CsF, 2 MgCl2, 0.5 CaCl2, 5 EGTA, 2 Mg-ATP and 10 HEPES (pH, 7.25; 285 mOsmol/L). The extracellular solution contained (in mM) 160 NaCl, 2.5 KCl, 0.2 CaCl2, 10 HEPES, and 10 glucose (pH, 7.35; 300-310 mOsmol/L). Whole-cell currents were recorded with an EPC-10 amplifier (HEKA Instruments, Lambrecht, Germany) at a holding potential of −60 mV. Signals were filtered at 1 kHz, digitized at 10 kHz and acquired using the Pulse program (HEKA Instruments). After the whole-cell configuration was established, the cell membrane capacitance and series resistance were electronically compensated for. Glycine (10 μM) and NMDA (300 μM) were used to elicit NMDAR currents. For voltage-dependent Mg^2+ block experiments, the conductance-voltage relation of NMDARs was assessed when 2 mM MgCl2 was added to the extracellular solution. The sensitivity of NMDARs to Mg^2+ was estimated by fitting current-voltage relationships to a Boltzmann function (Zhou et al., 2012). All HEK293 cell recording experiments were performed at 25° C.

[2] = tested on: cleaved caspase-3; experiment: MCAO: cleaved caspase-3 protein levels in brain tissues; format: in vivo, mouse; conditions: MCAO mice; cortex, hippocampus, striatum
From the text: (C and D) Original gel images (C, two pairs of samples) and quantification (D) of cleaved caspase-3 protein levels in the cerebral cortex, hippocampus, and striatum from MCAO mice treated with α2δ-1Tat peptide or control peptide (n=8 mice per group). Data are shown as means±SEM. *p<0.05 compared with the sham group. #p<0.05 compared with MCAO+vehicle group or control peptide group in the same brain region (repeated measures ANOVA for panel B; paired Student's t-test for panel D).

[3] = tested on: morphine-treated rats; experiment: Opioid-induced hyperalgesia and analgesic tolerance in rats; conditions: co-treatment: gabapentin 100 mg/kg i.p. or peptide 1 μg intrathecal
[4] = molecular target: T1, GluN1 and α2δ-1 in hypothalamic synaptosomes (Rattus norvegicus, UniProt P35439+Q00959+Q00960); experiment: Protein level analysis in hypothalamic synaptosomes (Ang II); format: cell-based
T1 construct: from tissue; host or cells: rat hypothalamic slices containing the PVN (Sprague-Dawley, WKY, SHR) and synaptosomes made from them
T1 sequence (Q00959 20-1464 limits assumed, other chains not shown): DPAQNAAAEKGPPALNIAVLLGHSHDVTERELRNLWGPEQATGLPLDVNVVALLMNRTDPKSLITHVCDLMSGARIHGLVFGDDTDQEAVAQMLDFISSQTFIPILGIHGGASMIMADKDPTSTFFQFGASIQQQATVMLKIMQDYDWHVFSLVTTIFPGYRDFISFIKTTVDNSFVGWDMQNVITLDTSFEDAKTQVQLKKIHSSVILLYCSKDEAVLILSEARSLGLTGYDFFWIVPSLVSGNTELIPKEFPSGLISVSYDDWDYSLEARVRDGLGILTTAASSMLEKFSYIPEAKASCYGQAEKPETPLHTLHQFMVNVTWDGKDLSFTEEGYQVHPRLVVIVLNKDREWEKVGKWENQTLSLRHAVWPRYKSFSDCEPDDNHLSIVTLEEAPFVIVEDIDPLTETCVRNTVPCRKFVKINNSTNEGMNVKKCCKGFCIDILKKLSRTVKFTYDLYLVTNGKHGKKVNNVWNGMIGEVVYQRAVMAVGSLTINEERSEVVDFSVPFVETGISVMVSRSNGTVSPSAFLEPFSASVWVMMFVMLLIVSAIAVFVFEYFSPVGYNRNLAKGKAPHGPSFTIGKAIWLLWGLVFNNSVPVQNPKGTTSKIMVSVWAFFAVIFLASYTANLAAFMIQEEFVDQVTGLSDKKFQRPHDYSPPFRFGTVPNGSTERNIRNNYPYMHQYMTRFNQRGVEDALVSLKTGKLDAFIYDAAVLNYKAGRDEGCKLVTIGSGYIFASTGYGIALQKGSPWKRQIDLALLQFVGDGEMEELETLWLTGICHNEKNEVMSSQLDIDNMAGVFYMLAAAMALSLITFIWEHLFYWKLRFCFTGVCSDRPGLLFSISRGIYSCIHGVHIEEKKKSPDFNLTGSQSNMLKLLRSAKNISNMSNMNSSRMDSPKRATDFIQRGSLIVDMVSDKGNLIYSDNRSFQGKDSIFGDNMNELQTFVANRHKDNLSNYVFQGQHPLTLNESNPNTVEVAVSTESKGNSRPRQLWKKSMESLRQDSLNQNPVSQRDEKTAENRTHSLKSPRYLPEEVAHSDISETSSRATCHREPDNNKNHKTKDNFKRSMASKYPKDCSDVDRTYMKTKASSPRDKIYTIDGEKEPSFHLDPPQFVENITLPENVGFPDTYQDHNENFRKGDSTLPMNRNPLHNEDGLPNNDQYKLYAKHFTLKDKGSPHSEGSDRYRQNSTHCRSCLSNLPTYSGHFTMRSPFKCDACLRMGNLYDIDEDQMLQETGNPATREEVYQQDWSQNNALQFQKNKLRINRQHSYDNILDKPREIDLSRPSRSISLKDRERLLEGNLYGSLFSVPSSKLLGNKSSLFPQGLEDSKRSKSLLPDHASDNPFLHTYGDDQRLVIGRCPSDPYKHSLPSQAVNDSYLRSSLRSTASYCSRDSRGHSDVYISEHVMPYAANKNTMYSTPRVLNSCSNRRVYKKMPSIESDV
T1 sequence (Q00960 27-1482, other chains not shown): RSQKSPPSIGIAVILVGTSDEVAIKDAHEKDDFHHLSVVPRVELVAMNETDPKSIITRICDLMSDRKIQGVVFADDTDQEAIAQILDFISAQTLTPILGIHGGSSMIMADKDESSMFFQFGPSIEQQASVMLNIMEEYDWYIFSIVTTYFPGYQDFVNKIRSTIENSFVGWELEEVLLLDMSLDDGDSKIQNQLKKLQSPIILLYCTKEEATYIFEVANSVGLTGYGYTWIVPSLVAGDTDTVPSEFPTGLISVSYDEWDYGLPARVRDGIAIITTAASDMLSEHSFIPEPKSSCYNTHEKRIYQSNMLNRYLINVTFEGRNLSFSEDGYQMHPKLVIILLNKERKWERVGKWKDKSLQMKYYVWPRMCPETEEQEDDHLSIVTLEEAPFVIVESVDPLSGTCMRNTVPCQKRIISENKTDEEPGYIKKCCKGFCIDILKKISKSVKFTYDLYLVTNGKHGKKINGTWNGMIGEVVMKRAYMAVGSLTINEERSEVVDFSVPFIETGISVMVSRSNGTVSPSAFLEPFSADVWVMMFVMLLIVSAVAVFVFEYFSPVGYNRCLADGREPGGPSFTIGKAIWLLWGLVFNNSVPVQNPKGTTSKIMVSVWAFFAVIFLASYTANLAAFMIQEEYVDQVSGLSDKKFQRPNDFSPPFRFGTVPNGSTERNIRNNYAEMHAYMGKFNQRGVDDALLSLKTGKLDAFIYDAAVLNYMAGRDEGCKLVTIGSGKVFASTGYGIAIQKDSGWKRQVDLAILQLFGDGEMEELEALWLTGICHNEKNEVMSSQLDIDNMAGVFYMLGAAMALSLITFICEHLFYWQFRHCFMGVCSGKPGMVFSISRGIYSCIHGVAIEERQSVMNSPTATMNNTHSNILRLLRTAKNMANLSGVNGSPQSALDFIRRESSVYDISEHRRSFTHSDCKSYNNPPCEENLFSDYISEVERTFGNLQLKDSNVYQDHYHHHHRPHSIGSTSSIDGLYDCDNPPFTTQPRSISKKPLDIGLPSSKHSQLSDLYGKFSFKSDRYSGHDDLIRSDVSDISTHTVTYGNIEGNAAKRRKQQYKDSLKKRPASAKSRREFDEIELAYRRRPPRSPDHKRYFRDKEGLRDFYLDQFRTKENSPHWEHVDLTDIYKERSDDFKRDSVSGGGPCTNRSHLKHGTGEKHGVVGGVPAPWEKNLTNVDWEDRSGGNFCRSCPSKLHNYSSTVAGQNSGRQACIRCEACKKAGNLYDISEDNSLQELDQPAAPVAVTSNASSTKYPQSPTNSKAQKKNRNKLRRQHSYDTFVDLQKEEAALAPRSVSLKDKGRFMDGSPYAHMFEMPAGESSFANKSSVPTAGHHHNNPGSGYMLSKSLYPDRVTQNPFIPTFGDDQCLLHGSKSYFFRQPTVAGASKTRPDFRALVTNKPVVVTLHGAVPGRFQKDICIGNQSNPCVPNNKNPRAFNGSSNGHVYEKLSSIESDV
Description: Protein level analysis in hypothalamic synaptosomes: The hypothalamic tissues containing the PVN (pooled from 2 rats per sample) were homogenized using 10 volumes of ice-cold HEPES-buffered sucrose (0.32 mol/L sucrose, 1 mmol/L EGTA, and 4 mmol/L HEPES at pH 7.4) containing the protease inhibitor cocktail (Sigma-Aldrich). The homogenate was centrifuged at 2,000×g for 10 min at 4° C. to remove the nuclei and large debris. The supernatant was centrifuged at 20,000×g for 30 min to obtain the crude synaptosomal fraction. The synaptosomal pellet was lysed via hypo-osmotic shock in 9 volumes of ice-cold HEPES-buffer with the protease inhibitor cocktail for 30 min. The lysate was centrifuged at 25,000×g for 45 min at 4° C. to obtain the synaptosomal membrane fraction (Chen et al., 2018), which was then dissolved in sodium dodecyl sulfate sample buffer at a final concentration of 0.25 μg/μl for immunoblotting.
Western blotting was used to quantify GluN1 and α2δ-1 protein levels in the hypothalamic synaptosome. Fifteen micrograms of total proteins from each sample was loaded and separated by 4-15% Tris-HCl sodium dodecyl sulfate-polyacrylamide gel electrophoresis (#456-1086, Bio-Rad, Hercules, Calif.). The resolved proteins were transferred to a polyvinylidene difluoride membrane (Millipore). The membrane was treated with 5% nonfat dry milk in Tris-buffered saline (TBS) at 25° C. for 1 h and then incubated in TBS supplemented with 0.1% Triton X-100, 1% bovine serum albumin, and rabbit anti-GluN1 (#G8913, 1:100; Sigma, RRID: AB_259978), rabbit anti-α2δ-1 (#ACC-015, 1:500, Alomone, Jerusalem, Israel, RRID: AB_2039785), and mouse anti-PSD-95 (#75-348, 1:1,000, NeuroMab, Davis, Calif., RRID: AB_2315909) antibodies overnight at 4° C. The membrane was washed 3 times and then incubated with horseradish peroxidase-conjugated anti-rabbit IgG (1:5,000; Jackson ImmunoResearch, West Grove, Pa.) for 1 h at room temperature. The protein bands were detected with an enhanced chemiluminescence kit (Thermo Fisher Scientific, Waltham, Mass.), and protein band intensity was visualized and quantified using an Odyssey Fc Imager (LI-COR Biosciences, Lincoln, Nebr.). The protein levels of GluN1 and α2δ-1 were normalized by the PSD-95 protein band on the same gel.

[5] = Ang II 2 μmol/L for 60 min vs vehicle
[6] = peptide 1 μmol/L for 30 min, vs control peptide

| Molecule | α2δ-1 co-expression-induced increase in the NMDAR current density ([1]; HEK293) | NMDAR currents in cells expressing GluN1/GluN2A or GluN1/GluN2B alone ([1]; HEK293 without α2δ-1) | α2δ-1-reduced voltage-dependent Mg2+ block of GluN1/GluN2A NMDARs ([1]; at −40 and −60 mV) | MCAO-induced apoptotic signaling (cleaved caspase-3) [2] | reduction in baseline withdrawal thresholds induced by chronic morphine injections [3] | reduction in the analgesic effect of morphine [3] | protein level of GluN1 in hypothalamic synaptosomes [4, 5] | protein level of α2δ-1 in hypothalamic synaptosomes [4, 5] | effect of Ang II on the protein level of GluN1 [4, 6] | effect of Ang II on the protein level of α2δ-1 [4, 6] |
| --- | --- | --- | --- | --- | --- | --- | --- | --- | --- | --- |
| NCC1(CC(=O)O)CCCCC1 [gabapentin] | completely reversed | had no effect | reversed this effect | suppresses | completely blocked | substantially attenuated | – | – | – | – |
| Ang II: angiotensin II, obtained from Sigma (DRVYIHPF; Angiotensin-2; UniProt P01019 25-32, looked up) | – | – | – | – | – | – | significantly increased | significantly increased | – | – |
| YGRKKRRQRRRVSGLNPSLWSIFGLQFILLWLVSGSRHYLW (a2d1 peptide) [α2δ-1Tat peptide] | – | – | – | suppresses | completely blocked | substantially attenuated | – | – | significantly attenuated | significantly attenuated |
